From paper PMC9969401, “Discovery of 2-(3-Benzamidopropanamido)thiazole-5-carboxylate Inhibitors of the Kinesin HSET (KIFC1) and the Development of Cellular Target Engagement Probes” (Journal of Medicinal Chemistry, 2023)

Target: T1, full-length HSET (FL HSET) (Homo sapiens, UniProt Q9BW19)
T1 construct: 5 nM full-length human N-terminal His-tag HSET; His-tag (N)
T1 sequence (Q9BW19 1-673): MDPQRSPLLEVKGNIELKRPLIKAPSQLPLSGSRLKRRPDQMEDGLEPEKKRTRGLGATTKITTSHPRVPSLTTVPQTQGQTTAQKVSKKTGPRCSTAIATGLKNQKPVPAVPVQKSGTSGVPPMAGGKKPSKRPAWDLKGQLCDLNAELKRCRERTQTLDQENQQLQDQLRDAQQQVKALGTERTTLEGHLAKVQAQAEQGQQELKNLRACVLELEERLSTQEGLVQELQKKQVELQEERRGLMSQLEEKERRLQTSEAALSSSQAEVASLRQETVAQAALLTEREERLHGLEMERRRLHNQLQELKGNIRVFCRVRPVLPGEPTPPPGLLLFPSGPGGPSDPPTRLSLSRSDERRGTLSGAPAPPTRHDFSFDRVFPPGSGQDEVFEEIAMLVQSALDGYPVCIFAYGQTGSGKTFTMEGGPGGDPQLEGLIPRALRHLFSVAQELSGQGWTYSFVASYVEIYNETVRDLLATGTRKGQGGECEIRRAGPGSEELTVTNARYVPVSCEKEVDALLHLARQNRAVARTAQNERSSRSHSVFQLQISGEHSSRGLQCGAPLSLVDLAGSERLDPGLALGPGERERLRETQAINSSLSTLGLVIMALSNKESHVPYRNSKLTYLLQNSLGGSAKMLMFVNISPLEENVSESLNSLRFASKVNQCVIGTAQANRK
Test: Competitive binding fluorescence polarization assay (displacement of probe 37)
Details: 400 nM FL HSET, 2.5 nM probe 37; read-out: IC50, displacement of FP probe 37 from FL HSET
Protocol: Steady-state fluorescence polarization binding assays were performed using the fluorescence-tagged probe 37. All assays were performed in a black ProxiPlate-384 Plus plate (PerkinElmer, 6008260) in a 10 μL volume in buffer containing 20 mM HEPES pH 7.5, 200 mM NaCl, 1 mM TCEP, 10 mM MgCl2, 0.1 mM Triton X-100, and 5% glycerol (v/v). Full-length human N-terminal His-tag HSET was used, with a final concentration of 2.5 nM 37 probe. The assays were sealed and incubated in the dark at 25 °C and then the FP signal was read on an EnVision multimode plate reader (PerkinElmer Life Sciences) using excitation at 620 nm and parallel and perpendicular emissions at 688 nm. All data processing was done using Prism (GraphPad Software).
For the competition assays, 100 nL of compound dissolved in DMSO or DMSO alone was added to create 11 pt concentration response curves between 100 and 0.001 μM final concentrations. This assay used 400 nM FL HSET, and the plate was read after 2 h of incubation in the dark at 25 °C. IC50 values were determined as for the ATPase assay using a four-parameter statistical logistic curve fit.

SMILES	IC50
Nc1ncnc2c1ncn2[C@@H]1O[C@H](COP(=O)(O)OP(=O)(O)OP(=O)(O)O)[C@@H](O)[C@H]1O [ATP, adenosine 5′-triphosphate]	436 ± 56 nM
Nc1ncnc2c1ncn2[C@@H]1O[C@H](COP(=O)(O)OP(=O)(O)O)[C@@H](O)[C@H]1O [ADP, adenosine diphosphate]	400 ± 66 nM
